Source: US20030170643A1, “Regulation of apoB treatment and drug screening for cardiovascular and metabolic disorders or syndromes” (priority 1999, published 2003)

Tests used:
Assay type in all cases: cell-based
rat hepatoma cells [1] = test: TBARS assay of ROS in cell lysates of rat hepatoma cells; details: fatty acid alone
Protocol: FIG. 13 illustrates that either an iron chelator (DFX) or lipid antioxidants block DHA-stimulated apoB degradation and reactive oxygen species (ROS) production. Rat hepatoma cells were plated in culture wells and pre-incubated in media containing either DHA or DHA with one of the indicated compounds. Radiolabeled methionine/cysteine was added to the culture media for 15 minutes, after which time, the culture media were replaced by fresh media identical in composition except that radiolabeled methionine/cysteine were replaced by unlabeled methionone/cysteine. The recovery of labeled apoB100 ([^35S]-apoB100) from the media and cell lysate was determined at the indicated time points (with time 0 being the point when the fresh media were applied to the cells) by immunoprecipitating apoB species with a rabbit polyclonal antibody to rat apoB, resuspending the immunoprecipitates, combining aliquots from cell lysate and media samples from each well, resolving the protein contents of the combined immunoprecipitates by SDS-polyacrylamide gel electrophoresis (SDS-PAGE), and exposing the resultant gels to X-ray film in order to visualize the labeled apoB bands. In panel A are shown representative signals for radiolabeled apoB100 in each of the treatment conditions. […] For each treatment, there were at least 2 wells/treatment for each time point and the entire experiment repeated. The signal intensities of the apoB100 bands were quantified by densitometry and the mean relative recoveries (the % of the 15 minute, or initial, value still remaining at 120 minutes) ±SEM are shown in panel B. Note that the visual impressions observable in panel A are confirmed by the quantitative analysis; i.e., there is a substantial increase in labeled apoB100 recovery with any of the co-treatments. In panel C, the ROS content of the cell lysates at the end of the experiment was measured by the standard TBARS assay (Stocks et al., 1974, Clin Sci Mol Med 47,215-222). Note that compared to control (BSA), DHA induced a large increase in TBARS, as expected because of its high content on unsaturated bonds. […] FIG. 15 illustrates that AA stimulates apoB100 degradation and increases ROS. […] Note in the upper panel that the combined recovery (from two separate wells/time point) of radiolabeled apoB100 decreased from 15 to 120 minutes, indicating significant apoB100 degradation had occurred in the presence of AA. […] In addition to being a source of ROS, AA can also be converted by cyclooxygenase (COX) to bioactive prostaglandin compounds. We therefore repeated the experiment with AA but with co-treatment by the COX inhibitor aspirin.

rat hepatoma cells [2] = test: Pulse-chase recovery of [35S]-apoB100 (apoB100 degradation) in rat hepatoma cells; details: for effect on DHA-stimulated apoB100 degradation: rat hepatoma cells or primary hepatocytes, co-treatment with DHA/BSA
Protocol: FIG. 13 illustrates that either an iron chelator (DFX) or lipid antioxidants block DHA-stimulated apoB degradation and reactive oxygen species (ROS) production. Rat hepatoma cells were plated in culture wells and pre-incubated in media containing either DHA or DHA with one of the indicated compounds. Radiolabeled methionine/cysteine was added to the culture media for 15 minutes, after which time, the culture media were replaced by fresh media identical in composition except that radiolabeled methionine/cysteine were replaced by unlabeled methionone/cysteine. The recovery of labeled apoB100 ([^35S]-apoB100) from the media and cell lysate was determined at the indicated time points (with time 0 being the point when the fresh media were applied to the cells) by immunoprecipitating apoB species with a rabbit polyclonal antibody to rat apoB, resuspending the immunoprecipitates, combining aliquots from cell lysate and media samples from each well, resolving the protein contents of the combined immunoprecipitates by SDS-polyacrylamide gel electrophoresis (SDS-PAGE), and exposing the resultant gels to X-ray film in order to visualize the labeled apoB bands. In panel A are shown representative signals for radiolabeled apoB100 in each of the treatment conditions. […] For each treatment, there were at least 2 wells/treatment for each time point and the entire experiment repeated. The signal intensities of the apoB100 bands were quantified by densitometry and the mean relative recoveries (the % of the 15 minute, or initial, value still remaining at 120 minutes) ±SEM are shown in panel B. Note that the visual impressions observable in panel A are confirmed by the quantitative analysis; i.e., there is a substantial increase in labeled apoB100 recovery with any of the co-treatments. In panel C, the ROS content of the cell lysates at the end of the experiment was measured by the standard TBARS assay (Stocks et al., 1974, Clin Sci Mol Med 47,215-222). Note that compared to control (BSA), DHA induced a large increase in TBARS, as expected because of its high content on unsaturated bonds.
FIG. 14 illustrates that DHA, but not saturated MA, induces apoB100 degradation in rat hepatoma cells. An experiment similar to the one described in FIG. 13 was performed, with the following changes: A) The immunoprecipitates from cell lysate and media samples were not combined, but separately analyzed. B) In addition to the 15 and 120 minute time points, apoB recovery was determined at 30 minutes. C) In addition to DHA, the effects of the fatty acid myristic (MA) were also tested because it has no unsaturated bonds and should not give rise to ROS.
FIG. 15 illustrates that AA stimulates apoB100 degradation and increases ROS. […] Note in the upper panel that the combined recovery (from two separate wells/time point) of radiolabeled apoB100 decreased from 15 to 120 minutes, indicating significant apoB100 degradation had occurred in the presence of AA. […] In addition to being a source of ROS, AA can also be converted by cyclooxygenase (COX) to bioactive prostaglandin compounds. We therefore repeated the experiment with AA but with co-treatment by the COX inhibitor aspirin.
To further explore the underlying mechanisms, rat hepatoma cells or primary hepatocytes were incubated with the Ω-3 fatty acid DHA complexed to BSA, while blocking candidate cellular mediators. […] There was, however, strong evidence against a role for calcium. Chelation of intracellular Ca^++ with BAPTA-AM, pharmacologic blockage of Ca^++ channels, depletion of the ER-calcium pool, and increasing Ca++ influx with an ionophore each had no effect. Because EGTA also chelates Fe^+++, and DHA is subject to Fe^+++-dependent peroxidation, the role of this lipid modification was examined. As shown in FIG. 13A and 13B, Desferroxamine (DFX), a chelator of Fe^+++, the antioxidant vitamin E (Vit E), and the synthetic antioxidant BHT, each inhibited DHA-stimulated apoB100 degradation by ˜60%.

Rat McA hepatoma cells = test: Proteasome inhibition and apoB degradation in rat McA hepatoma cells
Protocol: FIG. 8 illustrates that EPA stimulates apoB degradation even when proteasomes are inhibited. Panel A: Rat McA hepatoma cells were incubated at 37° C. for 4 hr in [^35S]methionine-containing medium supplemented with either BSA (C) or EPA/BSA complexes (EPA) in the absence (EPA) or presence (EPA+LAC) of the proteasome inhibitor, lactacystin. Samples of cell lysates and conditioned media were subjected to immunoprecipitation analysis with anti-apoB antiserum, followed by SDS-PAGE and fluorography. In three separate experiments, the effect of lactacystin on EPA-induced degradation averaged less than 20%. Panel B: Rat McA hepatoma cells were incubated at 37° C. for 4 hr in [^355]methionine-containing medium supplemented with either BSA (Control) or BSA and lactacystin (LAC). After immunoprecipitation/SDS-PAGE analysis of the cell lysate and media samples, the resulting fluorograms were analyzed by phosphorimager and the recovery of total (cell+medium) apoB100 was quantified. The results shown (mean total recovery relative to control, ±SE) are based on 8 independent determinations. * indicates P<0.001, LAC vs. control.
To determine whether the proteasome mediated Ω-3 fatty acid-induced apoB degradation, rat hepatoma cells were incubated at 37° C. for 4 hr in [^35S]methionine-containing medium supplemented with either BSA or EPA/BSA complexes in the absence or presence of the proteasome inhibitor, lactacystin ([…]; purchased from the laboratory of Dr. E. J. Corey, Harvard University). Samples of cell lysates and conditioned media were subjected to immunoprecipitation analysis with anti-apoB antiserum, followed by SDS-PAGE and fluorography. To determine whether Ω-3 fatty acids targeted apoB to lysosomal degradation, a similar experiment was performed substituting ammonium chloride (40 mM) for lactacystin.

rat primary hepatocytes = test: Secretion of newly synthesized ([35S]methionine-labeled) VLDL-apoproteins by rat primary hepatocytes incubated with fatty acid/BSA complexes; details: fatty acid/BSA complexes (0.8 mM FA), VLDL fraction
Protocol: Cells were plated at a density of 2×10^6 cells/ml on 60-mm culture dishes (previously coated with poly-D-lysine) in modified M199 medium (M199, 1% fetal bovine serum [FBS], 1 mM nicotinamide, 0.1 nM insulin, 3 mg/ml choline, 1.1% L-glutamine, 1% BSA). After a four-hour attachment period, the medium was changed (modified M199 identical to the above except BSA was omitted and the concentration of FBS was raised to 10%). The next morning, cells were washed in serum-free medium three times, the experimental media added, and the cells incubated at 37° C. for 4-6 hours. The experimental medium consisted of serum-free RPMI containing the appropriate isotopes (see below) and fatty acids (FA) present at a final concentration of 0.8 mM complexed to BSA (FA:BSA molar ratio=5:1). The fatty acids used were oleic (OA), EPA, and DHA. Control medium was identical, except that BSA (0.16 mM) without fatty acids was present. For metabolic labeling of proteins, [^35S]methionine (70 uCi/ml) was included in the experimental media.
Following the 4-6 hour incubation period, the cell monolayer was washed, then solubilized in 0.1 M NaOH, and the cell protein determined by the Lowry method (Lowry, O. H., Rosebrough, N. J., Farr, A. L., and Randall, R. J. (1951) J Biol Chem 193, 265-75). Each 60 mm dish contained approximately 1-1.5 mg of cell protein. The secreted apoproteins were isolated from the medium either by ultracentrifugation or immunoprecipitation. To isolate the d<1.006 (VLDL) and 1.006<d<1.063 (IDL and LDL) g/ml density classes by centrifugation, sequential 20 hour runs at 48,000 rpm in a 50 Ti Beckman rotor at 4° C. were performed. After the first run at d=1.006, the upper VLDL layer was harvested and the density of the infranatant adjusted to 1.066 g/ml with solid KBr. After being overlaid with a KBr solution of density 1.063, the adjusted infranatant was re-centrifuged as before to isolate the IDL and LDL fractions. In some experiments, the HDL fraction (1.063<d<1.21) was isolated by sequential density centrifugation. Lipoprotein fractions were then dialyzed against 0.9% NaCl containing 10 mM unlabeled methionine, 0.2 mM PMSF, and 2 mM EDTA. Dialyzed lipoproteins were delipidated using 9 volumes of 100% isopropanol. Apoproteins were then collected by centrifugation in a Sorval HB-4 rotor at 10,000 rpm and 4° C. for 20 min, and dissolved in buffer (0.01 M phosphate, pH 7,1 % SDS, 10% glycerol), in preparation for electrophoresis.
To immunoprecipitate apoB or apoE from unfractionated conditioned medium, monospecific rabbit antiserum to rat apoB or apoE was used. Briefly, an aliquot of the medium was mixed with an equal volume of diluted antiserum (1:100 in PBS and 1% BSA) and incubated overnight at 4° C. Staph A was added in the form of immunoprecipitin, and the resultant precipitate containing the immune complexes was washed extensively, the staph A cells removed, and the isolated apoprotein dissolved in gel sample buffer (0.0625M tris/Cl, pH 6.8, 20% glycerol, 2% SDS). Electrophoretic separation of apoVLDL, apoIDL/LDL, and immunoprecipitates was accomplished using 3.5% acrylamide-18% glycerol gels as described (Maguire, G. F., Lee, M., and Connelly, P. W. (1989) J Lipid Res 30, 757-61). An aliquot of each sample was taken for scintillation counting, so that total radioactivity applied to each lane could be determined. Also, protein size standards were included in each gel.
After electrophoresis, the gels were stained, fixed, soaked in Enhance fluor solution, and dried following protocols supplied by the manufacturer. Dried gels were then exposed to X-ray film at −70° C. and signals on the resulting fluorograms were typically quantified by densitometry or phosphorimaging. Using the total radioactivity applied to each lane of the gel and the relative signal intensity of each band in that lane, the radioactivity associated with each apoprotein species was calculated. […]

## CCCCCCCCCCCCCC(=O)O [MA, myristic acid]
Rat hepatoma cells [1]
  reactive oxygen species (ROS), TBARS assay, fatty acid compared to BSA: does not increase

## CCCCC/C=C\C/C=C\C/C=C\C/C=C\CCCC(=O)O [AA, arachidonic acid]
Rat hepatoma cells [2]; AA plus aspirin
  AA-induced apoB100 degradation with co-treatment by the COX inhibitor aspirin: still induced apoB100 degradation
Rat hepatoma cells [2]; rat hepatoma cells, 15 to 120 minutes chase
  apoB100 degradation induced by the fatty acid: stimulates the degradation of apoB
Rat hepatoma cells [1]
  reactive oxygen species (ROS), TBARS assay, fatty acid compared to BSA: increases

## CC(=O)OCOC(=O)CN(CC(=O)OCOC(C)=O)c1ccccc1OCCOc1ccccc1N(CC(=O)OCOC(C)=O)CC(=O)OCOC(C)=O [BAPTA-AM]
Rat hepatoma cells [2]
  effect on DHA-stimulated apoB100 degradation: no effect

## O=C(O)CN(CC(=O)O)c1ccccc1OCCOc1ccccc1N(CC(=O)O)CC(=O)O [BAPTA]
Rat hepatoma cells [2]
  effect on DHA-stimulated apoB100 degradation: blocked

## CC(=O)Oc1ccccc1C(=O)O [aspirin]
Rat hepatoma cells [2]
  effect on DHA-stimulated apoB100 degradation: no effect

## CC(=O)N[C@@H](CSC(=O)[C@]1([C@@H](O)C(C)C)NC(=O)[C@H](C)[C@@H]1O)C(=O)O [lactacystin]
Rat McA hepatoma cells; FIG. 8 Panel A
  inhibition of EPA-induced apoB degradation: little if any inhibition
Rat McA hepatoma cells; FIG. 8 Panel B, total (cell+medium), P<0.001 vs control
  apoB100 recovery in the absence of Ω-3 fatty acids: increased
Rat McA hepatoma cells; average of three separate experiments, 4 hr
  effect of lactacystin on EPA-induced apoB degradation: less than 20%

## CC/C=C\C/C=C\C/C=C\C/C=C\C/C=C\CCCC(=O)O [EPA, eicosapentaenoic acid]
Rat primary hepatocytes
  secretion of newly synthesized VLDL-ApoB48, percentage of secretion observed with BSA alone: 45 ± 3 percentage
  secretion of newly synthesized VLDL-ApoB100, percentage of secretion observed with BSA alone: 25 ± 2 percentage
  secretion of newly synthesized VLDL-ApoE, percentage of secretion observed with BSA alone: 45 ± 1 percentage

## O=C(O)CN(CCOCCOCCN(CC(=O)O)CC(=O)O)CC(=O)O [EGTA]
Rat hepatoma cells [2]
  effect on DHA-stimulated apoB100 degradation: blocked

## Cc1cc(C(C)(C)C)c(O)c(C(C)(C)C)c1 [BHT, butylhydroxytoluene]
Rat hepatoma cells [2]; co-treatment with DHA, FIG. 13A and 13B
  inhibition of DHA-stimulated apoB100 degradation: ~60%
